Source: PMC9806268, “Overlapping activation pattern of bitter taste receptors affect sensory adaptation and food perception” (Frontiers in Nutrition, 2022)
Where two headings read alike, the source gives them in different places.

Key:
Test in all cases: Fluo-4 calcium mobilization assay (FLIPR), stable inducible cells
Type in all cases: cell-based
TAS2R43 = target: T1, TAS2R43 (Homo sapiens, UniProt P59537); details: for EC50: read-out: TAS2R43 / EC50-conc.
T1 sequence (P59537 1-309): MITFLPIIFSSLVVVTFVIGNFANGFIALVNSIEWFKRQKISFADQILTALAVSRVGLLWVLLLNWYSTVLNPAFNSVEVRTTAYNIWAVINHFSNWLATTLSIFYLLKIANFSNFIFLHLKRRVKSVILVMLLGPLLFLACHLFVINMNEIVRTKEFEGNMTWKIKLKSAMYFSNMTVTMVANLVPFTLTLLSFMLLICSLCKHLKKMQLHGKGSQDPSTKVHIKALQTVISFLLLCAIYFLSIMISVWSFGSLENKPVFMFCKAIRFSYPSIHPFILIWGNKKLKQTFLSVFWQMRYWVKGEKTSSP
From the text: Fluo-4 calcium mobilization assay (FLIPR), stable inducible cells on TAS2R43

TAS2R14 = target: T2, TAS2R14 (Homo sapiens, UniProt Q9NYV8); details: agonist; C1 buffer pH 7.4; non-induced cells subtracted
T2 sequence (Q9NYV8 1-317): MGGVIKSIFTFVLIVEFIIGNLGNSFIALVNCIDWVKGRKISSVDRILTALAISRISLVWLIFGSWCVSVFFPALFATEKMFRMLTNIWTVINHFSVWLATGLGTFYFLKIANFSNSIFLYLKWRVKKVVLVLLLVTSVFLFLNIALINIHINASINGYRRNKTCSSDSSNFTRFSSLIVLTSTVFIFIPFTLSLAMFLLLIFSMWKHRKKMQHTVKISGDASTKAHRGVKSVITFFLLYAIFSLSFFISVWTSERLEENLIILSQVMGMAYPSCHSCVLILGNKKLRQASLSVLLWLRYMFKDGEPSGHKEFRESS
From the text: Fluo-4 calcium mobilization assay (FLIPR), stable inducible cells on TAS2R14

TAS2R46 = target: T3, TAS2R46 (Homo sapiens, UniProt P59540)
T3 construct: cDNA in pcDNA5/FRT/TO
T3 sequence (P59540 1-309): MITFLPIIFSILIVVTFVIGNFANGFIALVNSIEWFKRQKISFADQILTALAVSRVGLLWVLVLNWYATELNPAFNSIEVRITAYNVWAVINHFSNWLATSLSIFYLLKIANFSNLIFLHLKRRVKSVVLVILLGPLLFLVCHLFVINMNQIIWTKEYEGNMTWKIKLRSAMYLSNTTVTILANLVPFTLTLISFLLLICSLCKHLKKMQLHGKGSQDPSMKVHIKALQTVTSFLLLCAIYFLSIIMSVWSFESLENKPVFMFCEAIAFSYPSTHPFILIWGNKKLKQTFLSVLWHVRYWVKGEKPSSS
From the text: Fluo-4 calcium mobilization assay (FLIPR), stable inducible cells on TAS2R46

[1] = agonist, C1 buffer pH 7.4, non-induced cells subtracted

Compound	TAS2R43 threshold (TAS2R43; [1])	TAS2R14 / Threshold (TAS2R14)	TAS2R46 / Threshold (TAS2R46; [1])	EC50 (TAS2R43; [1])	EC50 (TAS2R43)	EC50 (TAS2R46; read-out: TAS2R46 / EC50-conc.)
CC1=C2C(=O)C=C(CO)[C@@H]2[C@H]2OC(=O)[C@@H](C)[C@@H]2[C@@H](O)C1 [11β,13-dihydrolactucin]	10 µM	100 µM	30 µM			
lactucopicrin		30 µM		0.46 ± 0.08 µM		
C=C1C(=O)O[C@@H]2[C@H]3C(CO)=CC(=O)C3=C(C)C[C@H](O)[C@@H]12 [lactucin]		100 µM			14.9 ± 2.5 µM	8.85 ± 1.17 µM
